Experimental data as given in patent US4985558A, “1,4-dihydropyridine derivative” (Nikken Chemicals Co., Ltd., priority 1988, dated 1991).
Values joined by “and” are separate entries in the source; they are usually repeats but may differ in a detail not shown here. Equal values may be shown once. Read-outs that look alike come from different tables or passages of the source.

Experiments:
ICR mice = assay: acute toxicity test; settings: mouse, in vivo;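 further: intraperitoneal dosing with deaths counted over 10 days of observation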
Method: Male 6-week-old ICR mice were divided into groups of 2 to 5 mice per group. […] The drugs to be tested were administered in varying amounts of 250 to 2000 mg/kg to 5 or 7 groups (a geometrical series of .cent.2), at a dose volume of 10 ml/kg. In the Table, the respective compounds have the same meanings as described above.

[1] = test system: vincristine (VCR)-resistant mouse leukemia (P388/VCR) cells; assay: Antitumor agent potentiating effect in vincristine-resistant tumor bearing mouse (Example 12, i.p.); type: in vivo
Method: (§1) The potentiating effect of the antitumor agent (T/V) % was determined according to the formula shown below. Verapamil was employed as the positive Control compound. […] In the Tables, Compound 1 is the compound obtained in Example 1, Compound 2 that obtained in Example 2, Compound 3 that obtained in Example 3, Compound 4 that obtained in Example 4, and Compound 5 that obtained in Example 5. [formula]
The potentiating effect of the antitumor agent (T/V) % was determined as described above (Example 11). Nicardipine was employed as the positive Control compound, and was administered intraperitoneally for 10 days. […] In the Tables, Compound 6 is the compound obtained in Example 6, Compound 7 that obtained in Example 7, and Compound 8 that obtained in Example 8.

[2] = test system: spontaneously hypertensive rats (SHR); settings: rat, in vivo, ip
Method: The systolic blood pressure was measured by using spontaneously hypertensive rats (SHR), which are a model of hypertension when examine the hypotensive activities of the compounds of the present invention and the positive Control compound. The rats were warmed for 5 minutes in a warming box at 55° C., and their blood pressure then measured by a tail cuff plethysmograph. The compounds of the present invention were administered singly and intraperitoneally at a dose of 100 mg/kg and the positive Control compound was administered singly and intraperitoneally at a dose of 10 mg/kg. […] Blood pressure measurements were taken before administration and 60 minutes after administration. Nicardipine was employed as the positive Control compound.

[3] = test system: vincristine (VCR)-resistant mouse leukemia (P388/VCR) cells; assay: Antitumor agent potentiating effect in vincristine-resistant tumor bearing mouse (Example 11, i.p. 5 days); type: in vivo
Method: as §1

rat rectum smooth muscle = assay: Inhibitory effects on potassium contracture in rat rectum smooth muscle; type: cell-based; settings: 5 min, K contraction 5.6 to 56.0 mM, read-out: Inhibition ratio; for inhibition at 0.1 µM: 10^-7 M; for inhibition at 0.01 µM: 10^-8 M
Method: Rat rectum (about 1.5 cm) was isolated and suspended in a Magnus tube. A Locke solution was employed as the nutrient solution, and a contraction of the intestinum rectum was caused by changing the potassium (K) concentration of this solution from 5.6 mmol (mM) to 56.0 mM. This contraction was a contraction through a membrane dependent Ca-channel mediated contraction based on depolarization by a K concentration change. The contraction was recorded by an FD-transducer and polygraph. The compounds of the present invention were permitted to act 5 minutes before changing the K concentration, and simultaneously with changing the K concentration. […] A judgement was made 5 minutes after changing the K concentration, and the difference in contraction before the concentration change was indicated as an inhibition % value. Verapamil and nicardipine were employed as the positive control compound .

[4] = test system: vincristine (VCR)-resistant mouse leukemia (P388/VCR) cells; assay: Antitumor agent potentiating effect in vincristine-resistant tumor bearing mouse (Example 13, oral compound, 10 days); type: in vivo
[5] = test system: antitumor drug sensitive cells P388/S of mouse P388 leukemia cells; assay: VCR alone in mice bearing drug sensitive P388/S leukemia (Example 13, Table 8(B)); type: in vivo
Method: The compounds of this invention were administered orally after the treatment described above, and VCR was administered as described above. The progress thereof was observed and the survival days for respective animals were determined to obtain the survival ratio (T/C) % relative to the Control. The antitumor agent potentiating effect (T/V) % was determined as described above. In the Table, Compound 8 is the compound obtained in Example 8.

[6] = compound 100 mg/kg i.p. + VCR 30 μg/kg i.p.
[7] = compound alone 100 mg/kg i.p., no VCR
[8] = compound 50 mg/kg/day oral + VCR 100 μg/kg/day i.p.
[9] = compound 100 mg/kg/day oral + VCR 10 μg/kg/day i.p.
[10] = compound 100 mg/kg/day oral + VCR 30 μg/kg/day i.p.
[11] = compound 100 mg/kg/day oral + VCR 100 μg/kg/day i.p.
[12] = compound 200 mg/kg/day oral + VCR 10 μg/kg/day i.p.
[13] = compound 200 mg/kg/day oral + VCR 30 μg/kg/day i.p.
[14] = compound 200 mg/kg/day oral + VCR 100 μg/kg/day i.p.
[15] = compound 300 mg/kg/day oral + VCR 10 μg/kg/day i.p.
[16] = compound 300 mg/kg/day oral + VCR 30 μg/kg/day i.p.
[17] = positive control 30 mg/kg + VCR 30 μg/kg
[18] = positive control 60 mg/kg + VCR 30 μg/kg
[19] = VCR 30 μg/kg i.p. alone (reference = 100)
[20] = positive control 50 mg/kg i.p., 10 days + VCR 30 μg/kg
[21] = positive control 75 mg/kg i.p., 10 days + VCR 30 μg/kg
[22] = positive control alone 50 mg/kg i.p., 10 days
[23] = positive control alone 75 mg/kg i.p., 10 days

CC1=C(C(=O)OCc2ccccn2)C(C2=CSCCS2)C(C(=O)OCc2ccccn2)=C(C)N1 [Compound 6, bis(2-pyridylmethyl) 4-[2-(5,6-dihydro-1,4-dithiinyl)]-2,6-dimethyl-1,4-dihydropyridine-3,5-dicarboxylate]
Mortality (ICR mice): 0/2 and 0/3 | Potentiating effect T/V [1, 6]: 125% | Survival Days (Mean ± SD) [1, 6]: 14.2 ± 1.2 days | Survival ratio T/C [1, 6]: 138% | Survival Days (Mean ± SD) [1, 7]: 10.8 ± 0.8 days | Survival ratio T/C [1, 7]: 105% | Blood pressure change ([2]; 100 mg/kg): -30 mmHg | Systolic Blood Pressure 60 minutes after administration ([2]; 100 mg/kg): 191 mmHg

CC1=C(C(=O)OCCCc2cccnc2)C(C2=COCCO2)C(C(=O)OCCCc2cccnc2)=C(C)N1 [Compound 3, bis[3-(3-pyridyl)propyl]4-[2-(5,6-dihydro-p-dioxinyl)]-2,6-dimethyl-1,4-dihydropyridine-3,5-dicarboxylate]
Mortality (ICR mice): 4/4 and 3/4 and 1/5 and 2/5 and 0/5 | Potentiating effect T/V [3, 6]: 130% | Survival Days (Mean ± SD) [3, 6]: 13.7 ± 1.5 days | Survival ratio T/C [3, 6]: 140% | Survival Days (Mean ± SD) [3, 7]: 10.3 ± 0.5 days | Survival ratio T/C [3, 7]: 105% | inhibition at 0.1 µM (rat rectum smooth muscle): -4.2% | inhibition at 0.01 µM (rat rectum smooth muscle): -11.5%

CC1=C(C(=O)OCc2ccncc2)C(C2=C(C)SCCS2)C(C(=O)OCc2ccncc2)=C(C)N1 [Compound 8, bis(4-pyridylmethyl) 4-[2-(3-methyl-5,6-dihydro-1,4-dithiinyl)-]2,6-dimethyl-1,-4-dihydropyridine-3,5-dicarboxylate]
life prolonging effect compared with VCR alone in P388/S ([4]; combination with VCR, P388/VCR, Table 8): has an effect comparable to the prolonging effect when VCR is administered alone to P388/S which is a vincristine-sensitive clone (Table 8), thus completely overcoming the VCR resistance | Potentiating effect T/V [4, 8]: 120% | Survival Days (Mean ± SD) [4, 8]: 12.5 ± 1.6 days | Survival ratio T/C [4, 8]: 132% | Potentiating effect T/V [4, 9]: 120% | Survival Days (Mean ± SD) [4, 9]: 11.3 ± 0.8 days | Survival ratio T/C [4, 9]: 119% | Potentiating effect T/V [4, 10]: 118% | Survival Days (Mean ± SD) [4, 10]: 12.2 ± 1.2 days | Survival ratio T/C [4, 10]: 128% | Potentiating effect T/V [4, 11]: 130% | Survival Days (Mean ± SD) [4, 11]: 13.5 ± 1.4 days | Survival ratio T/C [4, 11]: 142% | Potentiating effect T/V [4, 12]: 131% | Survival Days (Mean ± SD) [4, 12]: 12.3 ± 0.5 days | Survival ratio T/C [4, 12]: 129% | Potentiating effect T/V [4, 13]: 139% | Survival Days (Mean ± SD) [4, 13]: 14.3 ± 1.0 days | Survival ratio T/C [4, 13]: 151% | Potentiating effect T/V [4, 14]: 156% | Survival Days (Mean ± SD) [4, 14]: 16.2 ± 2.4 days | Survival ratio T/C [4, 14]: 171% | Potentiating effect T/V [4, 15]: 144% | Survival Days (Mean ± SD) [4, 15]: 13.5 ± 0.5 days | Survival ratio T/C [4, 15]: 142% | Potentiating effect T/V [4, 16]: 149% | Survival Days (Mean ± SD) [4, 16]: 15.3 ± 1.5 days | Survival ratio T/C [4, 16]: 161% | Potentiating effect T/V [1, 6]: 138% | Survival Days (Mean ± SD) [1, 6]: 13.5 ± 0.8 days | Survival ratio T/C [1, 6]: 138% | Survival Days (Mean ± SD) [1, 7]: 9.7 ± 1.0 days | Survival ratio T/C [1, 7]: 99% | Blood pressure change ([2]; 100 mg/kg): -11 mmHg | Systolic Blood Pressure 60 minutes after administration ([2]; 100 mg/kg): 187 mmHg

CC1=C(C(=O)OCc2cccnc2)C(C2=CSCCS2)C(C(=O)OCc2cccnc2)=C(C)N1 [Compound 7, bis(3-pyridylmethyl) 4-[2-(5,6-dihydro-1,4-dithiinyl)]-2,6-dimethyl-1,4-dihydropyridine-3,5-dicarboxylate]
Potentiating effect T/V [1, 6]: 118% | Survival Days (Mean ± SD) [1, 6]: 13.5 ± 0.8 days | Survival ratio T/C [1, 6]: 131% | Survival Days (Mean ± SD) [1, 7]: 11.0 ± 0.6 days | Survival ratio T/C [1, 7]: 107% | Blood pressure change ([2]; 100 mg/kg): -38 mmHg | Systolic Blood Pressure 60 minutes after administration ([2]; 100 mg/kg): 189 mmHg

CC1=C(C(=O)OCCc2ccccn2)C(C2=COCCO2)C(C(=O)OCCc2ccccn2)=C(C)N1 [Compound 4, bis[2-(2-pyridyl)ethyl]4-[2-(5,6-dihydro-p-dioxinyl)]-2,6-dimethyl-1,4-dihydropyridine-3,5-dicarboxylate]
Potentiating effect T/V [3, 6]: 121% | Survival Days (Mean ± SD) [3, 6]: 13.7 ± 1.6 days | Survival ratio T/C [3, 6]: 126% | inhibition at 0.1 µM (rat rectum smooth muscle): 5.2% | inhibition at 0.01 µM (rat rectum smooth muscle): -6.9%

CCc1ccc(COC(=O)C2=C(C)NC(C)=C(C(=O)OCc3ccc(CC)cn3)C2C2=COCCO2)nc1 [Compound 5, bis[2-(5-ethylpyridyl)methyl]4-[2-(5,6-dihydro-p-dioxinyl)-]2,6-dimethyl-1,4-dihydropyridine-3,5-dicarboxylate]
Mortality (ICR mice): 0/2 and 0/3 | Blood pressure change ([2]; 100 mg/kg): -34 mmHg | Systolic Blood Pressure 60 minutes after administration ([2]; 100 mg/kg): 187 mmHg | Potentiating effect T/V [3, 6]: 131% | Survival Days (Mean ± SD) [3, 6]: 14.8 ± 1.2 days | Survival ratio T/C [3, 6]: 136%

COc1ccc(CCN(C)CCCC(C#N)(c2ccc(OC)c(OC)c2)C(C)C)cc1OC (stereo not shown) [Verapamil, reference compound]
Potentiating effect T/V [3, 17]: 121% | Survival Days (Mean ± SD) [3, 17]: 14.3 ± 1.6 days | Survival ratio T/C [3, 17]: 134% | Potentiating effect T/V [3, 18]: 130% | Survival Days (Mean ± SD) [3, 18]: 15.3 ± 0.5 days | Survival ratio T/C [3, 18]: 143% | inhibition at 0.1 µM (rat rectum smooth muscle): 50.2% | inhibition at 0.01 µM (rat rectum smooth muscle): 13.6%

CC[C@]1(O)C[C@H]2CN(CCc3c([nH]c4ccccc34)[C@@](C(=O)OC)(c3cc4c(cc3OC)N(C=O)[C@H]3[C@@](O)(C(=O)OC)[C@H](OC(C)=O)[C@]5(CC)C=CCN6CC[C@]43[C@@H]65)C2)C1 [VCR, vincristine, reference compound]
Survival Days (Mean ± SD) ([4]; VCR 10 μg/kg/day i.p. alone): 9.4 ± 0.7 days | Survival ratio T/C ([4]; VCR 10 μg/kg/day i.p. alone): 99% | Potentiating effect T/V ([4]; VCR 10 μg/kg/day i.p. alone (reference = 100)): 100% | Survival Days (Mean ± SD) ([4]; VCR 30 μg/kg/day i.p. alone): 10.3 ± 1.5 days | Potentiating effect T/V ([4]; VCR 30 μg/kg/day i.p. alone (reference = 100)): 100% | Survival Days (Mean ± SD) ([4]; VCR 100 μg/kg/day i.p. alone): 10.4 ± 0.9 days | Potentiating effect T/V ([4]; VCR 100 μg/kg/day i.p. alone (reference = 100)): 100% | Survival Days (Mean ± SD) ([5]; VCR 10 μg/kg/day alone): 11.8 ± 0.8 days | Survival ratio T/C ([5]; VCR 10 μg/kg/day alone): 144% | Survival Days (Mean ± SD) ([5]; VCR 30 μg/kg/day alone): 13.3 ± 0.9 days | Survival ratio T/C ([5]; VCR 30 μg/kg/day alone): 162% | Survival Days (Mean ± SD) ([5]; VCR 100 μg/kg/day alone): 15.2 ± 0.8 days | Survival ratio T/C ([5]; VCR 100 μg/kg/day alone): 185% | Survival Days (Mean ± SD) ([1]; VCR 30 μg/kg i.p. alone): 11.4 ± 1.0 days and 9.8 ± 0.8 days and 11.0 ± 1.8 days | Survival ratio T/C ([1]; VCR 30 μg/kg i.p. alone): 100% | Potentiating effect T/V [1, 19]: 100% | Survival Days (Mean ± SD) ([3]; VCR 30 μg/kg i.p. alone): 12.5 ± 1.4 days and 10.5 ± 0.8 days and 11.3 ± 1.0 days and 11.8 ± 1.3 days | Survival ratio T/C ([3]; VCR 30 μg/kg i.p. alone): 104% | Potentiating effect T/V [3, 19]: 100%

COC(=O)C1=C(C)NC(C)=C(C(=O)OCCN(C)Cc2ccccc2)C1c1cccc([N+](=O)[O-])c1 (stereo not shown) [Nicardipine, reference compound]
Potentiating effect T/V [1, 20]: 112% | Survival Days (Mean ± SD) [1, 20]: 12.3 ± 0.8 days | Survival ratio T/C [1, 20]: 128% | Potentiating effect T/V [1, 21]: 125% | Survival Days (Mean ± SD) [1, 21]: 13.7 ± 1.2 days | Survival ratio T/C [1, 21]: 143% | Survival Days (Mean ± SD) [1, 22]: 10.6 ± 1.5 days | Survival ratio T/C [1, 22]: 110% | Survival Days (Mean ± SD) [1, 23]: 11.2 ± 1.1 days | Survival ratio T/C [1, 23]: 117% | Blood pressure change ([2]; 10 mg/kg): -122 mmHg | Systolic Blood Pressure 60 minutes after administration ([2]; 10 mg/kg): 86 mmHg | inhibition at 0.01 µM (rat rectum smooth muscle): 73.1%
